Assay: Dissolution studies of Lasofoxifene in organic solvents and surfactants
Assay type: physicochemical
Conditions: Lasofoxifene 2 mg/ml in the labelled solvent/surfactant; visual examination
Protocol: The solubility of Lasofoxifene was investigated by screening various organic solvents and surfactants in increasing concentrations. The term “formulation” may refer to a pharmaceutical composition comprising […] pharmaceutically acceptable excipients.
First, 1 mg of Lasofoxifene was weighed into Eppendorf vessels and 500 μl of organic solvents and surfactants as listed in Table 20 were added. In cases of insufficient dissolution of the API, samples were treated with ultrasound for 30 min and, if necessary, heated to 50° C. while shaking (300 rpm). Afterwards, samples were examined visually regarding drug dissolution. In case of entire dissolution, the experiment was repeated with increasing drug concentrations until maximum dissolution was achieved. In addition, further organic solvents and surfactants were tested.

## CC(=O)OCC(COC(C)=O)OC(C)=O [Triacetin (TAC), Triacetin]
  Dissolution of Lasofoxifene in various organic solvents and surfactants, 2 mg/ml: not dissolved

Reference: US10857127B2, “Vaginal delivery systems containing selective estrogen receptor modulator (SERM) and uses thereof” (Azure Biotech, Inc., priority 2016, dated 2020)
